Experimental data taken from publication PMC12903969, “Discovery of a Novel and Potent Kir4.1 Inhibitor as a Safe and Rapid‐Onset Antidepressant Agent in Mice” (Advanced Science, 2025).
Where two headings read alike, the source gives them in different places.

Legend:
Kir4.1 = biological target: T1, Kir4.1 (Homo sapiens, UniProt P78508); experiment: Whole-cell patch clamp, Kir4.1 currents in transfected CHO-K1 cells; assay type: cell-based; conditions: for inhibition at 0.5 µM: CHO-K1, 0.5 μM; for inhibition at 1 µM: CHO-K1, 1 μM; for inhibition at 10 µM: CHO-K1, 10 μM; for IC50: whole-cell patch clamp
T1 construct: host or cells: CHO-K1
T1 sequence (P78508 1-379): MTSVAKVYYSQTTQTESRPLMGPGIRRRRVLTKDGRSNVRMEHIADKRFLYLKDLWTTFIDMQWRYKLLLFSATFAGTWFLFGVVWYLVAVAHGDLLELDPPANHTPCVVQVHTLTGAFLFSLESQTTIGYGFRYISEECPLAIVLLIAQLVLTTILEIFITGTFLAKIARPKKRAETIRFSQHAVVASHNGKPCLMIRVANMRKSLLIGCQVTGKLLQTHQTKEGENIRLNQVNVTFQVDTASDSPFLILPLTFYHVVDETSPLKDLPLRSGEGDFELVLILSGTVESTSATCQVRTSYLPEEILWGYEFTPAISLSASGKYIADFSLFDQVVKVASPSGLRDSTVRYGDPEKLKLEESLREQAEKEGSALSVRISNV
Description: Plasmids encoding WT human potassium channels Kir1.1, Kir2.1, Kir2.2, Kir4.1, and Kir4.2 were obtained from the Beijing Genomics Institute. All point mutations were constructed using the QuickChange II Site‐Directed Mutagenesis Kit (Stratagene) and subsequently verified by sequencing.
CHO‐K1 cells were maintained in DMEM/F12 growth medium containing 10% fetal bovine serum. Plasmids encoding the target genes (3600 ng) and enhanced green fluorescent protein (400 ng) were cotransfected into cells using Lipofectamine 2000 (Invitrogen) in accordance with the manufacturer's instructions. Cells were seeded onto poly‐d‐lysine (PDL)‐coated glass coverslips 1 h prior to electrophysiological recordings. All cells were cultured under standard conditions of 5% CO2 at 37 °C.
(§1) Whole‐cell patch‐clamp recordings were obtained either in transiently transfected CHO‐K1 cells or in primary cultured astrocytes at room temperature using standard patch‐clamp techniques with an Axopatch‐700B amplifier (Axon Instruments). The signals were filtered at 2 kHz and sampled at 20 kHz using the Digidata 1440A interface (Axon Instruments). The resistance of borosilicate glass pipettes was typically 2–4 MΩ when filled with the internal solution. Drug application was facilitated using a BPS perfusion system (ALA Scientific Instruments). Macroscopic currents generated by expressed potassium channels were recorded under the voltage‐clamp conditions with an internal pipette solution composed of (in mM): 140 KCl, 5 NaCl, 1 CaCl2, 1 MgCl2, 10 HEPES, and 10 EGTA, pH 7.2 adjusted with KOH. The external solution contained (in mM): 140 NaCl, 5 KCl, 2 CaCl2, 1 MgCl2, 10 glucose, and 10 HEPES, pH 7.4 adjusted with NaOH. Currents were elicited with a hyperpolarized voltage at −120 mV from the holding potential of −80 mV, followed by a ramp voltage depolarizing to +50 mV. Astrocytic resting membrane potentials were recorded under current‐clamp conditions (I = 0 pA) using standard internal and external solutions, determined immediately after achieving whole‐cell mode.

[1] = tested on: MDA-MB-468 breast cancer cells; experiment: Cytotoxicity test (CCK-8); assay type: cell-based
Description: Cytotoxicity of all the tested compounds was determined using the cell counting kit‐8 (CCK‐8) assay kit (Beyotime, Shanghai, China). Briefly, MDA‐MB‐468 was cultured in L15 medium and plated in 96‐well plates at a density of 12,000 cells per well for 24 h at 37 °C in a 5% CO2 incubator. The tested compounds were dissolved in DMSO and diluted with culture medium (DMSO final concentration < 0.4%). Then the cells were treated with compounds (0.41, 1.23, 3.70, 11.11, 33.33, 100.00 µM) for 48 h. After treatments, removal of the supernatant liquor, 100 µL of new media diluted CCK‐8 solution (10% CCK‐8) was added into each well and incubated at 37 °C for 2 h. The absorbance of the mixture was directly measured at 450 nm. The results are presented as a percentage of the control.

[2] = tested on: primary cortical astrocytes (native Kir4.1 channels); experiment: Patch clamp of primary cultured WT astrocytes (native Kir4.1); assay type: cell-based, mouse; conditions: JX3212 3 µM; BaCl2 100 µM
Description: Astrocytes were isolated and cultured as previously described.^[ [16] ^] Briefly, the cortices from P1‐P4 mouse pups were dissected and incubated for 25 min in Hank's Balanced Salt Solution (22.5 ml) with 2.5% trypsin (2.5 ml) at 37 °C. Cells were dissociated in cultured medium (DMEM/F12 supplemented with 10% fetal bovine serum and 1% penicillin and streptomycin) and filtered with a 70‐µm cell strainer. Cell suspensions were cultured in PDL‐pretreated 75‐cm^2 flasks for the initial seven days, with half of the medium replaced every 2 days. Subsequently, the cultures were shaken at 220 rpm for 6 h at 37 °C to remove microglia and oligodendrocytes from the astrocyte layers. The astrocytes were harvested, reseeded in two new flasks, and cultured in an incubator for 14 days. For Kir4.1 deletion in cell cultures, 4‐OH tamoxifen (final concentration: 1 µM, Felixbio) was added into Kir4.1^flox/flox: Aldh1l1‐Cre/ERT2 cortical cultures at DIV 2 and DIV 4, respectively, and completely removed at DIV7 when astrocytes were reseeded in fresh culture medium.
as §1

[3] = +50 mV, read-out: Kir4.1 Inhibition ± SD (%) at 1 μM, +50 mV
[4] = -120 mV, read-out: Kir4.1 Inhibition ± SD (%) at 1 μM, -120 mV
[5] = +50 mV, read-out: Kir4.1 Inhibition ± SD (%) at 10 μM, +50 mV
[6] = -120 mV, read-out: Kir4.1 Inhibition ± SD (%) at 10 μM, -120 mV
[7] = Homo sapiens, MDA-MB-468, MDA-MB-468 breast cancer cells, read-out: IC50 ± SD (μM) for MDA-MB-468 Inhibition

Row | Compound | inhibition at 1 µM (Kir4.1; [3]) [%] | inhibition at 1 µM (Kir4.1; [4]) [%] | inhibition at 10 µM (Kir4.1; [5]) [%] | inhibition at 10 µM (Kir4.1; [6]) [%] | IC50 [1, 7] [µM] | also measured
1 | CCn1c2ccccc2c2cc(Nc3ccnc(NCCCN4CCOCC4)n3)ccc21 [EHop-016, N ^4‐(9‐ethyl‐9H‐carbazole‐3‐yl)‐N ^2‐(3‐morpholinopropyl)pyrimidine‐2,4‐diamine, reference compound] | 76 ± 1.81 | 64.6 ± 5.93 | 96.6 ± 1.38 | 97 ± 1.86 | – | inhibition at 0.5 µM (Kir4.1; +50 mV, read-out: Kir4.1 Inhibition ± SD (%) at 0.5 μM, +50 mV): 17.2 ± 2.53%; inhibition at 0.5 µM (Kir4.1; -120 mV, read-out: Kir4.1 Inhibition ± SD (%) at 0.5 μM, -120 mV): 19 ± 3.75%; IC50 (Kir4.1; CHO cells transiently expressing Kir4.1, +50 mV, read-out: IC50 for Kir4.1 inhibition (+50 mV, outward currents)): 0.61 µM; IC50 (Kir4.1; CHO cells transiently expressing Kir4.1, −120 mV, read-out: IC50 for Kir4.1 inhibition (−120 mV, inward currents)): 0.74 µM; IC50 ([1]; Homo sapiens, MDA-MB-468, 48 h, CCK-8, 48 h, read-out: IC50 against MDA-MB-468 breast cancer cells): 5.98 ± 0.67 µM
2 | c1ccc2c(c1)oc1ccc(N[C@H]3CC[C@@H](NCCCN4CCOCC4)CC3)cc12 [JX3226, (1s,4s)-N^1-(dibenzo[b,d]furan-2-yl)-N^4-(3-morpholinopropyl)cyclohexane-1,4-diamine] | – | – | – | – | – | Kir4.1 Inhibition ± SD (%) at 1 μM, +50 mV (Kir4.1; 1 μM, +50 mV): 3.35 ± 4.46%; Kir4.1 Inhibition ± SD (%) at 1 μM, -120 mV (Kir4.1; 1 μM, -120 mV): 6.91 ± 6.13%; Kir4.1 Inhibition ± SD (%) at 10 μM, +50 mV (Kir4.1; +50 mV): 94.03 ± 1.98%; Kir4.1 Inhibition ± SD (%) at 10 μM, -120 mV (Kir4.1; -120 mV): 86.98 ± 0.69%; IC50 ([1]; MDA-MB-468 breast cancer cells, read-out: IC50 ± SD (μM) for MDA-MB-468 Inhibition): 19.5 ± 1.64 µM
3 | CCN(CC)CCCNc1nccc(Nc2ccc3oc4ccccc4c3c2)n1 [JX3238, N^4-(dibenzo[b,d]furan-2-yl)-N^2-(3-(diethylamino)propyl)pyrimidine-2,4-diamine] | 27 ± 12.3 | 2.21 ± 3.14 | 98.5 ± 0.23 | 93.1 ± 2.15 | 10.3 ± 3.8 | –
4 | c1cc(NC2CCCCC2)nc(NCCCN2CCOCC2)n1 [JX3202, N^4-cyclohexyl-N^2-(3-morpholinopropyl)pyrimidine-2,4-diamine] | – | – | 6.08 ± 3.06 | 2.79 ± 2.22 | 21.1 ± 2.08 | –
5 | c1ccc2c(c1)oc1ccc(Nc3cncc(NCCCN4CCOCC4)n3)cc12 [JX3223, N^2-(dibenzo[b,d]furan-2-yl)-N^6-(3-morpholinopropyl)pyrazine-2,6-diamine] | – | – | – | – | 23 ± 3.41 | Kir4.1 Inhibition ± SD (%) at 10 μM, +50 mV (Kir4.1; +50 mV, 10 µM): 7.01 ± 4.11%; Kir4.1 Inhibition ± SD (%) at 10 μM, -120 mV (Kir4.1; -120 mV): 6.62 ± 0.29%
6 | COC1CCN(CCCNc2nccc(Nc3ccc4oc5ccccc5c4c3)n2)CC1 [JX3246, N^4-(dibenzo[b,d]furan-2-yl)-N^2-(3-(4-methoxypiperidin-1-yl)propyl)pyrimidine-2,4-diamine] | 73 ± 5.77 | 55.4 ± 3.73 | 91.3 ± 3.5 | 89.5 ± 2.33 | 9.97 ± 0.62 | –
7 | c1ccc2c(c1)oc1ccc(Nc3ccnc(NCCCN4CCN(C5COC5)CC4)n3)cc12 [JX3248, N^4-(dibenzo[b,d]furan-2-yl)-N^2-(3-(4-(oxetan-3-yl)piperazin-1-yl)propyl)pyrimidine-2,4-diamine] | 21.9 ± 8.36 | 11.5 ± 6.63 | 97.46 ± 0.59 | 81.5 ± 2.87 | > 50 | –
8 | [Ba+2].[Cl-].[Cl-] [BaCl2, reference compound] | – | – | – | – | – | astrocytic resting membrane potential (in words) [2]: marked depolarization
9 | C[C@@H]1CN(CCCNc2nccc(Nc3ccc4oc5ccccc5c4c3)n2)C[C@H](C)O1 [JX3242, N^4-(dibenzo[b,d]furan-2-yl)-N^2-(3-((2S,6R)-2,6-dimethylmorpholino)propyl)pyrimidine-2,4-diamine] | -0.93 ± 7.76 | -3.38 ± 9.3 | 97.5 ± 1.92 | 94.2 ± 1.77 | 5.38 ± 0.11 | –
10 | CC1(C)c2ccccc2-c2cc(Nc3ccnc(NCCCN4CCOCC4)n3)ccc21 [JX3210, N^4-(9,9-dimethyl-9H-fluoren-3-yl)-N^2-(3-morpholinopropyl)pyrimidine-2,4-diamine] | 62 ± 4.2 | 42.7 ± 2.34 | 93.2 ± 3.42 | 98.69 ± 0.66 | 2.66 ± 0.51 | –
11 | CC1CC(C)CN(CCCNc2nccc(Nc3ccc4oc5ccccc5c4c3)n2)C1 (centres unmarked) [JX3247, N^4-(dibenzo[b,d]furan-2-yl)-N^2-(3-(3,5-dimethylpiperidin-1-yl)propyl)pyrimidine-2,4-diamine] | 80.4 ± 8.36 | 66.6 ± 2.75 | 97.75 ± 0.84 | 94.2 ± 2.26 | 6.03 ± 0.24 | –
12 | c1ccc2c(c1)oc1ccc(Nc3cc(NCCCN4CCOCC4)ncn3)cc12 [JX3222, N^4-(dibenzo[b,d]furan-2-yl)-N^6-(3-morpholinopropyl)pyrimidine-4,6-diamine] | 5.55 ± 2.74 | -0.94 ± 6.65 | 87.3 ± 6.4 | 71.1 ± 6.03 | 44 ± 1.48 | –
13 | c1cc(NCCCN2CCOCC2)nc(Nc2ccc3oc4ccccc4c3c2)c1 [JX3220, N^2-(dibenzo[b,d]furan-2-yl)-N^6-(3-morpholinopropyl)pyridine-2,6-diamine] | – | – | 2.61 ± 1.87 | 3.98 ± 1.6 | 8.74 ± 0.36 | –
